These are literature values, as cited in EP4488277A1, “NOVEL BISPIDINE-BASED METAL CHELATING LIGANDS DISPLAYING GOOD RELAXIVITY” (Université de Strasbourg, priority 2023, dated 2025).

The conditions of the data set: pH of 7.4, 60 MHz, 25°C.

As to `CNC[C@H](O)[C@@H](O)[C@H](O)[C@H](O)CO.O=C([O-])CN1CCN(CC(=O)[O-])CCN(CC(=O)O)CCN(CC(=O)[O-])CC1.[Gd+3]` [Dotarem®, gadoterate meglumine], the “relaxivity r1” value is 3.7 mM⁻¹ s⁻¹.
